Square brackets hold non-standard residues; d marks the D form. Ends that are not written are not given here. Peptide text beside a SMILES is read from it. Cit = NC(=O)NCCC[C@H](N)C(=O)O
Assays:
Experiment in all cases: HLA class II peptide binding, inhibition of radiolabeled peptide binding to purified MHC; for IC50 DRB1*01:01: competition with radiolabeled peptide (0.1–1 nM); for IC50 DRB1*04:01: competition with radiolabeled peptide (0.1–1 nM)
DRB5*01:01 = target: T1, DRB5*01:01 (Homo sapiens, UniProt P01903+Q30154); details: Other DR, competition with radiolabeled peptide, two-day incubation, three or more independent experiments
T1 construct: EBV transformed homozygous cell lines were used as sources of MHC molecules; endogenous in cells; host or cells: EBV transformed homozygous cell lines

DRB1*03:01 = DRB1*03:01 (Homo sapiens, UniProt P01903+P01911, A100K/A102G/A103R/A169T/F55Y/I96L/K41T/L162R/M171V/P40S/Q125H/Q178H/Q39Y/R42S/S66N/T106N/T262R/W38E/Y61H); details: Other DR, competition with radiolabeled peptide, two-day incubation, three or more independent experiments
DRB1*11:01 = DRB1*11:01 (Homo sapiens, UniProt P01903+P01911, A100R/A169T/A87E/I96F/K41T/L162R/M171V/P40S/Q125H/Q178H/Q39Y/Q99D/R42S/S66Y/T262R/V115G/W38E); details: SE-, competition with radiolabeled peptide, two-day incubation, three or more independent experiments
HLA-DRB1*01:01 = target: T2, HLA-DRB1*01:01 (Homo sapiens, UniProt P01903+P01911, A100R/D57E/F55L/F60I/F76Y/I96L/L162R/M171V/P40L/Q125E/R42F/V115G/Y59C); details: read-out: IC50 DRB1*01:01; note: competition with radiolabeled peptide (0.1–1 nM)
T2 construct: EBV transformed homozygous cell lines were used as sources of MHC molecules; endogenous in cells; host or cells: EBV transformed homozygous cell lines

DRB1*12:01 = DRB1*12:01 (Homo sapiens, UniProt P01903+P01911, A100R/A169T/D57E/D86V/F55L/H45Y/K41T/L162R/M171V/P40S/Q125H/Q178H/Q39Y/Q99D/R42G/S66L/T262R/V114A/V67L/W38E/Y59H/Y61H/Y89S); details: SE-, competition with radiolabeled peptide, two-day incubation, three or more independent experiments
DRB3*02:02 = DRB3*02:02 (Homo sapiens, UniProt P01903+P79483, A212P/D57E/F66Y/L67A/R103Q/R218S/R40L/S89Y/T80R/V86D/Y55F/Y59H); details: Other DR, competition with radiolabeled peptide, two-day incubation, three or more independent experiments
DRB1*08:02 = DRB1*08:02 (Homo sapiens, UniProt P01903+P01911, A100R/A103L/A169T/F76Y/H45Y/I96F/K41T/L162R/M171V/P40S/Q125H/Q178H/Q39Y/Q99D/R218S/R42G/S66Y/V115G/W38E); details: Other DR, competition with radiolabeled peptide, two-day incubation, three or more independent experiments
DRB3*01:01 = target: T3, DRB3*01:01 (Homo sapiens, UniProt P01903+P79483); details: Other DR, competition with radiolabeled peptide, two-day incubation, three or more independent experiments
T3 construct: EBV transformed homozygous cell lines were used as sources of MHC molecules; endogenous in cells; host or cells: EBV transformed homozygous cell lines

DQB1*03:01 = DQB1*03:01 (Homo sapiens, UniProt P01909+P01920); details: DQ, competition with radiolabeled peptide, two-day incubation, three or more independent experiments
DRB4*01:01 = target: T4, DRB4*01:01 (Homo sapiens, UniProt P01903+P13762, G164S); details: Other DR, competition with radiolabeled peptide, two-day incubation, three or more independent experiments
T4 construct: EBV transformed homozygous cell lines were used as sources of MHC molecules; endogenous in cells; host or cells: EBV transformed homozygous cell lines

DRB1*04:04 = DRB1*04:04 (Homo sapiens, UniProt P01903+P01911, A100R/A169T/F76Y/I96L/K127E/L162R/M171V/N62H/P40V/Q125Y/R42H/S133A/S149N/S66Y/V209L/W38E); details: SE+, competition with radiolabeled peptide, two-day incubation, three or more independent experiments
DRB1*10:01 = DRB1*10:01 (Homo sapiens, UniProt P01903+P01911, A100R/A169T/D57E/F55L/F60V/F69Y/F76Y/I96L/L162R/M171V/P40V/Q260P/Q39E/Q99R/R195Q/R42F/S149N/S66Y/T210M/V115G/V67A/W38E/Y59R/Y61H); details: SE+, competition with radiolabeled peptide, two-day incubation, three or more independent experiments
HLA-DRB1*04:01 = target: T5, HLA-DRB1*04:01 (Homo sapiens, UniProt P01903+P01911, A100K/A169T/F76Y/I96L/K127E/L162R/M171V/N62H/P40V/Q125Y/R42H/S133A/S149N/S66Y/V115G/V209L/W38E); details: read-out: IC50 DRB1*04:01; note: competition with radiolabeled peptide (0.1–1 nM)
T5 construct: EBV transformed homozygous cell lines were used as sources of MHC molecules; endogenous in cells; host or cells: EBV transformed homozygous cell lines

DRB1*04:02 = DRB1*04:02 (Homo sapiens, UniProt P01903+P01911, A100E/A169T/F76Y/K127E/L162R/M171V/N62H/P40V/Q125Y/Q99D/R42H/S133A/S149N/S66Y/V209L/W38E); details: SE-, competition with radiolabeled peptide, two-day incubation, three or more independent experiments
DRB1*09:01 = DRB1*09:01 (Homo sapiens, UniProt P01903+P01911, A100R/A103E/D57H/D86V/F55Y/F60I/F76Y/I96F/K127E/L162R/M171V/P40D/Q125H/Q99R/R33Q/R42F/S133A/S66N/T210M/V115G/W38K/Y107V/Y59G/Y89S); details: Other DR, competition with radiolabeled peptide, two-day incubation, three or more independent experiments
DRB1*15:01 = target: T6, DRB1*15:01 (Homo sapiens, UniProt P01903+P01911); details: SE-, competition with radiolabeled peptide, two-day incubation, three or more independent experiments
T6 construct: EBV transformed homozygous cell lines were used as sources of MHC molecules; endogenous in cells; host or cells: EBV transformed homozygous cell lines

DPB1*04:01 = target: T7, DPB1*04:01 (Homo sapiens, UniProt P04440+P20036); details: DP; purified MHC, competition with radiolabeled peptide, two-day incubation, three or more independent experiments
T7 construct: EBV transformed homozygous cell lines were used as sources of MHC molecules; endogenous in cells; host or cells: EBV transformed homozygous cell lines
T7 sequence (P04440 30-258): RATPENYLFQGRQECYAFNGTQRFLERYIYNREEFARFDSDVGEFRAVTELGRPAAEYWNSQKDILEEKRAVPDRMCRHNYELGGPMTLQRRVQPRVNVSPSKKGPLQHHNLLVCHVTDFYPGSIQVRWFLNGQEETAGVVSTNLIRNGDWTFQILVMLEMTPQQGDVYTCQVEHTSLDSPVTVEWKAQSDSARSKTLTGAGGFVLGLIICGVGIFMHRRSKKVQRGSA
T7 sequence (P20036 29-260 partner): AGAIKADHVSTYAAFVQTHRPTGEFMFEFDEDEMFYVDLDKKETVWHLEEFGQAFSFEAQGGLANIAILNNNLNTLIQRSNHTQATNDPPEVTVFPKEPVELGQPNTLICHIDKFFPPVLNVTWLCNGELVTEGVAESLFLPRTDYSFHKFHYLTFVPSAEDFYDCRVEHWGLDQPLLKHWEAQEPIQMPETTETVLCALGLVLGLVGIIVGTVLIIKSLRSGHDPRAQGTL

DRB1*16:02 = DRB1*16:02 (Homo sapiens, UniProt P01903+P01911, A100R/F76Y/I96L/Q99D/V115G); details: SE-, competition with radiolabeled peptide, two-day incubation, three or more independent experiments
DRB1*07:01 = DRB1*07:01 (Homo sapiens, UniProt P01903+P01911, A100R/A102G/A103Q/D57E/D86V/E43K/F76Y/K127E/L162R/M171V/P40G/Q125H/Q99D/R33Q/R42Y/R54Q/S133A/S66F/T210M/V115G/Y107V/Y59L/Y89S); details: Other DR, competition with radiolabeled peptide, two-day incubation, three or more independent experiments
DRB1*13:02 = DRB1*13:02 (Homo sapiens, UniProt P01903+P01911, A100E/A169T/K41T/L162R/M171V/P40S/Q125H/Q178H/Q39Y/Q99D/R42S/S66N/T262R/V115G/W38E/Y61H); details: SE-, competition with radiolabeled peptide, two-day incubation, three or more independent experiments
DRB1*04:05 = DRB1*04:05 (Homo sapiens, UniProt P01903+P01911, A100R/A169T/D86S/F76Y/I96L/K127E/L162R/M171V/N62H/P40V/Q125Y/R42H/S133A/S149N/S66Y/V115G/V209L/W38E); details: SE+, competition with radiolabeled peptide, two-day incubation, three or more independent experiments

Chain of DQB1*03:01 (P01920 33-261, other chains not shown): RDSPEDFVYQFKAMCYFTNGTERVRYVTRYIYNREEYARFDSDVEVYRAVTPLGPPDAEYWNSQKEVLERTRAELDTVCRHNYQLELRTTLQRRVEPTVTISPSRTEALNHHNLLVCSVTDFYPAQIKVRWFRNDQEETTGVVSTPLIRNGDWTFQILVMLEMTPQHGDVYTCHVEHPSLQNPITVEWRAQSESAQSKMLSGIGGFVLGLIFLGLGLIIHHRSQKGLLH

Compound	IC50 (DRB5*01:01)	IC50 (DRB1*03:01)	IC50 (DRB1*11:01)	IC50 (HLA-DRB1*01:01)	IC50 (DRB1*12:01)	IC50 (DRB3*02:02)	IC50 (DRB1*08:02)	IC50 (DRB3*01:01)	IC50 (DQB1*03:01)	IC50 (DRB4*01:01)	IC50 (DRB1*04:04)	IC50 (DRB1*10:01)	IC50 (HLA-DRB1*04:01)	IC50 (DRB1*04:02)	IC50 (DRB1*09:01)	IC50 (DRB1*15:01)	IC50 (DPB1*04:01)	IC50 (DRB1*16:02)	IC50 (DRB1*07:01)	IC50 (DRB1*13:02)	other results
LQYMRADQAAGGLR [Collagen II 1236–1249 WT]	8.88 µM	0.159 µM	9.86 µM	0.081 µM	> 30 µM	0.262 µM	1.04 µM	0.068 µM	12.8 µM	0.08 µM	0.102 µM	0.375 µM	0.0097 µM	0.118 µM	0.315 µM	1.46 µM	> 30 µM	23.1 µM	29.6 µM	3.92 µM	IC50 (DRB1*04:05): 1.77 µM
NQDFTNRINKLKNS [Fibrinogen 78–91 WT]	0.023 µM	> 30 µM	13.9 µM	> 30 µM	27.8 µM	> 30 µM	0.457 µM	> 30 µM	> 30 µM	7.7 µM	2.05 µM	3.58 µM	> 30 µM	> 30 µM	11.1 µM	> 30 µM	> 30 µM	8.43 µM	> 30 µM	> 30 µM	IC50 (DRB1*04:05): 12.8 µM

Now from value to compound, other results behind:

IC50 (DRB5*01:01)	IC50 (DRB1*03:01)	IC50 (DRB1*11:01)	IC50 (HLA-DRB1*01:01)	IC50 (DRB1*12:01)	IC50 (DRB3*02:02)	IC50 (DRB1*08:02)	IC50 (DRB3*01:01)	IC50 (DQB1*03:01)	IC50 (DRB4*01:01)	IC50 (DRB1*04:04)	IC50 (DRB1*10:01)	IC50 (HLA-DRB1*04:01)	IC50 (DRB1*04:02)	IC50 (DRB1*09:01)	IC50 (DRB1*15:01)	IC50 (DPB1*04:01)	IC50 (DRB1*16:02)	IC50 (DRB1*07:01)	IC50 (DRB1*13:02)	Compound	other results
1.36 µM	25.9 µM	8.92 µM	0.0095 µM	2.22 µM	> 30 µM	0.275 µM	> 30 µM	2.01 µM	0.004 µM	0.009 µM	0.035 µM	0.0018 µM	0.014 µM	0.353 µM	0.0054 µM	> 30 µM	0.118 µM	7.31 µM	15 µM	CC(C)C[C@H](NC(=O)[C@H](CCCNC(=N)N)NC(=O)[C@@H](NC(=O)[C@H](C)NC(=O)[C@@H](N)CO)C(C)C)C(=O)N[C@@H](CCCNC(N)=O)C(=O)N[C@@H](CO)C(=O)N[C@@H](CO)C(=O)N[C@H](C(=O)N1CCC[C@H]1C(=O)NCC(=O)N[C@H](C(=O)N[C@@H](CCCNC(=N)N)C(=O)O)C(C)C)C(C)C [Vimentin 66–78 Cit] (H-SAVRL[Cit]SSVPGVR-OH)	IC50 (DRB1*04:05): 0.054 µM
2.23 µM	12.2 µM	11.8 µM	3.26 µM	15.9 µM	9.09 µM	0.053 µM	> 30 µM	2.1 µM	2.02 µM	0.206 µM	5.17 µM	13.1 µM	0.927 µM	1.41 µM	0.0041 µM	> 30 µM	1.08 µM	> 30 µM	11.4 µM	SAVRLRSSVPGVR [Vimentin 66–78 WT]	IC50 (DRB1*04:05): 3.96 µM
0.016 µM	0.53 µM	0.52 µM	0.155 µM	1.05 µM	0.245 µM	3.96 µM	8.46 µM	0.229 µM	0.955 µM	0.565 µM	0.643 µM	0.713 µM	0.501 µM	0.73 µM	1.01 µM	26.2 µM	20.5 µM	3.03 µM	0.268 µM	VVLLVATEGRVRVNSAYQDK [Aggrecan 84–103 WT]	IC50 (DRB1*04:05): 0.183 µM

From article PMC5421785, “Citrullination only infrequently impacts peptide binding to HLA class II MHC” (PLoS ONE, 2017)
